According to US20150045410A1, “METHOD OF REGULATING CFTR EXPRESSION AND PROCESSING” (University of Iowa Research Foundation, priority 2012, published 2015):

Test system: CFTR-ΔF508
Assay: Transepithelial Cl^− current in primary human CFTR null airway epithelia (CFTR Q493X/S912X) transduced with Ad-CFTR-ΔF508
Type: cell-based
Details: CFTR null epithelia (Q493X/S912X) expressing Ad-CFTR-ΔF508, pretreated with oligonucleotide
Protocol: Transepithelial Cl^− current measurements were made in Ussing chambers about 2 weeks post-seeding (Itani, 0. A. et al. Human cystic fibrosis airway epithelia have reduced Cl− conductance but not increased Na+ conductance. Proc. Natl. Acad. Sci. USA 108, 10260-10265 (2011)). Briefly, primary cultures were mounted in a modified Ussing chamber (Jim's Instruments, 8 wells per instrument). Transepithelial Cl^− current was measured under short-circuit current conditions. Cultures were incubated overnight with 10 μM forskolin and 100 μM 3-isobutyl-1-methylxanthine (IBMX). After measuring baseline current, the transepithelial current (It) response to sequential apical addition of 100 μM amiloride (Amil), 100 μM 4,4′-diisothiocyanoto-stilbene-2,2′-disulfonic acid (DIDS), 4.8 mM [Cl^−], 10 μM forskolin and 100 μM 3-isobutyl-1-methylxanthine (IBMX), and 100 μM GlyH-101 was measured. Studies were conducted with a Cl^− concentration gradient containing 135 mM NaCl, 1.2 mM MgCl2, 1.2 mM CaCl2, 2.4 mM K2PO4, 0.6 mM KH2PO4, 5 mM dextrose, and 5 mM Hepes (pH 7.4) on the basolateral surface, and gluconate substituted for Cl^− on the apical side. […]

Substance | CFTR-mediated Cl^− current
miR-138 mimic: synthetic modified RNA duplex, sense SEQ ID NO: 4, antisense SEQ ID NO: 5, showing miR-138-like activity | restored
SIN3A DsiRNA: Dicer-substrate siRNA against SIN3A, sense SEQ ID NO: 6, antisense SEQ ID NO: 7 (sense GCGAUACAUGAAUUCAGAUACUACC; antisense GGUAGUAUCUGAAUUCAUGUAUCGCUC; chemistry not given here) | restored
